IC50 data for four compounds are collected here from patent publication US20030187075A1, “Sponge antitumor compounds” (priority 2000, published 2003).

Assay type in all cases: cell-based
One assay concerns A549 (Human Lung). The assay is described as follows: Antitumoral activity, cytotoxicity against A549. The note with it: A549 (Human Lung) cells.
A further assay relates to MEL28 (Melanoma). The assay is described as follows: Antitumoral activity, cytotoxicity against MEL28. The note with it: Homo sapiens, SK-MEL-28; MEL28 (Melanoma) cells.
A further assay concerns P388 Leukaemia. In words: Antitumoral activity, cytotoxicity against P388. The note with it: Mus musculus; P388 Leukaemia cells.
The next assay concerns HT29 (Human Colon). In words: Antitumoral activity, cytotoxicity against HT29. Conditions: HT-29; HT29 (Human Colon) cells.

≈ marks a conversion by molar mass, not a printed value.

For the compound `C=C(CC[C@@H]1C(=C)CC[C@H](Cl)C1(C)C)C(Cl)CN=C(Cl)Cl` (stereo partly shown) [Compound 1], the 50% inhibitory concentration (IC50) with A549 (Human Lung) was 0.1 µg/mL (≈ 0.269 µM); with MEL28 (Melanoma), 0.1 µg/mL (≈ 0.269 µM); in the assay on P388 Leukaemia it was 1 µg/mL (≈ 2.69 µM); in the assay on HT29 (Human Colon), 0.1 µg/mL (≈ 0.269 µM).

As for `CC1(C)[C@@H](Cl)[C@@H](O)C[C@]2(C)C/C(=C/C=O)CC[C@@H]12` [Compound 2], the half-inhibitory concentration (IC50) in the assay with A549 (Human Lung), with MEL28 (Melanoma), with P388 Leukaemia and with HT29 (Human Colon) was 1 µg/mL (≈ 3.69 µM) in each case.

Consider `CC1(C)[C@@H](Cl)[C@@H](O)C[C@]2(C)C/C(=C\C=O)CC[C@@H]12` [Compound 3], for which the IC50 in the assay on A549 (Human Lung), in the assay on MEL28 (Melanoma), in the assay with P388 Leukaemia and in the assay with HT29 (Human Colon) was 1 µg/mL (≈ 3.69 µM) in each case.

Turning to `CC1(C)[C@@H](Cl)CC[C@]2(C)C=C(C=CN=C(Cl)Cl)CC[C@@H]12` [Compound 4], the 50% inhibitory concentration (IC50) in the assay on A549 (Human Lung), with MEL28 (Melanoma), in the assay with P388 Leukaemia and in the assay with HT29 (Human Colon) was 1 µg/mL (≈ 2.99 µM) each time.
